{"source": "patent US20040253190A1", "about": "“Breath Freshening and Oral Cleansing Product Using Citral” (priority 2002, published 2004)", "type_in_all_cases": "cell-based", "key": {"Fusobacterium nucleatum [1]": {"test_system": "Fusobacterium nucleatum", "test": "MBC (Minimum bactericidal concentration), plating on blood agar", "conditions": "F. nucleatum, lowest concentration killing at least 99.9% of initial inoculum, plates 48 hours at 37° C.", "method": "(§1) In vitro tests were conducted with a gram positive supragingival plaque bacterium, Streptococcus mutans. In addition, two subgingival plaque bacteria associated with oral malodor were tested, Porphyromonas gingivalis and Fusobacterium nucleatum. The MIC (Minimum Inhibitory Concentrations) study protocol is as follows. Chlorhexidine was used as a positive control and sterile water was used as a negative control. Citral was suspended in 10% methanol with 3.8% Tween 80. […] 96 well microtiter plates were used for this study. Each well contained 5×10^5 colony forming units/ml of bacteria, serially diluted agents and bacterial growth medium. All bacterial cultures were incubated at 37° C. and stationary. Bacterial growth was estimated spectrophotometrically at 660 nm, after 48 hours. The MIC for each test bacteria was defined as the minimum concentration of test compound limiting turbidity to[…]. The MBC (Minimum bactericidal concentrations) were determined using the 96 well microtiter plate serial dilutions as described above for MIC studies. Serial dilution of cultures in wells showing no visible growth were performed and 10 microliters of culture were plated in triplicate on blood agar plates. Viable colonies were scored after incubation of the plates for 48 hours at 37° C. For each test bacterium, the number of CFU/ml were determined in the initial inoculum. The MBC was defined as the lowest concentration of a test compound that killed at least 99.9% of the cells present in the initial inoculum."}, "Porphyromonas gingivalis [2]": {"test_system": "Porphyromonas gingivalis", "test": "MBC (Minimum bactericidal concentration), plating on blood agar", "conditions": "P. gingivalis, lowest concentration killing at least 99.9% of initial inoculum, plates 48 hours at 37° C.", "method": "as §1"}, "Fusobacterium nucleatum [3]": {"test_system": "Fusobacterium nucleatum", "test": "MIC (Minimum Inhibitory Concentration) study, 96 well microtiter plate", "conditions": "F. nucleatum, 5×10^5 CFU/ml, 37° C., turbidity at 660 nm after 48 hours", "method": "(§2) In vitro tests were conducted with a gram positive supragingival plaque bacterium, Streptococcus mutans. In addition, two subgingival plaque bacteria associated with oral malodor were tested, Porphyromonas gingivalis and Fusobacterium nucleatum. The MIC (Minimum Inhibitory Concentrations) study protocol is as follows. Chlorhexidine was used as a positive control and sterile water was used as a negative control. Citral was suspended in 10% methanol with 3.8% Tween 80. […] 96 well microtiter plates were used for this study. Each well contained 5×10^5 colony forming units/ml of bacteria, serially diluted agents and bacterial growth medium. All bacterial cultures were incubated at 37° C. and stationary. Bacterial growth was estimated spectrophotometrically at 660 nm, after 48 hours. The MIC for each test bacteria was defined as the minimum concentration of test compound limiting turbidity to<absorbance at 660 nm."}, "Porphyromonas gingivalis [4]": {"test_system": "Porphyromonas gingivalis", "test": "MIC (Minimum Inhibitory Concentration) study, 96 well microtiter plate", "conditions": "P. gingivalis, 5×10^5 CFU/ml, 37° C., turbidity at 660 nm after 48 hours", "method": "as §2"}, "Streptococcus mutans": {"test_system": "Streptococcus mutans", "test": "MIC (Minimum Inhibitory Concentration) study, 96 well microtiter plate", "conditions": "S. mutans, 5×10^5 CFU/ml, 37° C., turbidity at 660 nm after 48 hours", "method": "as §2"}}}
{"smiles": "[H]/N=C(\\N/C(=N/[H])NCCCCCCNC(=N)NC(=N)Nc1ccc(Cl)cc1)Nc1ccc(Cl)cc1", "note": "[Cholorhexidine, Chlorhexidine, reference compound]", "values": [{"measurement": "MBC", "setting": "Fusobacterium nucleatum [1]", "value": 1.25, "unit": "µg/mL"}, {"measurement": "MBC", "setting": "Porphyromonas gingivalis [2]", "value": 1.25, "unit": "µg/mL"}, {"measurement": "MIC", "setting": "Fusobacterium nucleatum [3]", "value": 1.25, "unit": "µg/mL"}, {"measurement": "MIC", "setting": "Porphyromonas gingivalis [4]", "value": 1.25, "unit": "µg/mL"}]}
{"smiles": "CC(C)=CCCC(C)=CC=O", "note": "[citral]", "values": [{"measurement": "MBC", "setting": "Fusobacterium nucleatum [1]", "value": 31.3, "unit": "µg/mL"}, {"measurement": "MBC", "setting": "Porphyromonas gingivalis [2]", "value": 125, "unit": "µg/mL"}, {"measurement": "MIC", "setting": "Fusobacterium nucleatum [3]", "value": 15.6, "unit": "µg/mL"}, {"measurement": "MIC", "setting": "Streptococcus mutans", "value": 500, "unit": "µg/mL"}, {"measurement": "MIC", "setting": "Porphyromonas gingivalis [4]", "value": 62.5, "unit": "µg/mL"}]}
